{"source": "patent US20100093706A1", "about": "“MULTIMEDIATOR TRANSPORTER INHIBITORS FOR USE IN TREATMENT OF CENTRAL NERVOUS SYSTEM DISORDERS” (priority 2006, published 2010)", "key": {"DAT (r)": {"target": "DAT (r) (Rattus norvegicus, UniProt P23977)", "sequence (P23977 whole entry)": "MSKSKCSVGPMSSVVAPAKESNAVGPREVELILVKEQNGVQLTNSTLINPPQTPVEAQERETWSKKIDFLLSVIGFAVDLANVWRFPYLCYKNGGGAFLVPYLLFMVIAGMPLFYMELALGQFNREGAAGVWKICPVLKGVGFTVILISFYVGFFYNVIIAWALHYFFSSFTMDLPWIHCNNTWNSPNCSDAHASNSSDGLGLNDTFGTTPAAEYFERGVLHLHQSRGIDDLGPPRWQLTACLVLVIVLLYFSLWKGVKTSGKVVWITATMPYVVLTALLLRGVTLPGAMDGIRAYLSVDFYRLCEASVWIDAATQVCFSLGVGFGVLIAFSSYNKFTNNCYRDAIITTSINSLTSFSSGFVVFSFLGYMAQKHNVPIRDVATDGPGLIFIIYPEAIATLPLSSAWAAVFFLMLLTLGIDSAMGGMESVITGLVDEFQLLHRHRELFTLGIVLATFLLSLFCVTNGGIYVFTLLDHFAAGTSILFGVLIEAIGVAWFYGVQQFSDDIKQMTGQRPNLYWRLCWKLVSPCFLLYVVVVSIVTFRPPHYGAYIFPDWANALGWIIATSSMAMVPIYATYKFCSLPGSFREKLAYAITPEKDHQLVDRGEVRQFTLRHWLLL", "test": "in vitro functional uptake, rat DAT", "assay_type": "cell-based"}, "[1]": {"target": "NET (norepinephrine transporter or SLC6A2) (Homo sapiens, UniProt P23975)", "sequence (P23975 whole entry)": "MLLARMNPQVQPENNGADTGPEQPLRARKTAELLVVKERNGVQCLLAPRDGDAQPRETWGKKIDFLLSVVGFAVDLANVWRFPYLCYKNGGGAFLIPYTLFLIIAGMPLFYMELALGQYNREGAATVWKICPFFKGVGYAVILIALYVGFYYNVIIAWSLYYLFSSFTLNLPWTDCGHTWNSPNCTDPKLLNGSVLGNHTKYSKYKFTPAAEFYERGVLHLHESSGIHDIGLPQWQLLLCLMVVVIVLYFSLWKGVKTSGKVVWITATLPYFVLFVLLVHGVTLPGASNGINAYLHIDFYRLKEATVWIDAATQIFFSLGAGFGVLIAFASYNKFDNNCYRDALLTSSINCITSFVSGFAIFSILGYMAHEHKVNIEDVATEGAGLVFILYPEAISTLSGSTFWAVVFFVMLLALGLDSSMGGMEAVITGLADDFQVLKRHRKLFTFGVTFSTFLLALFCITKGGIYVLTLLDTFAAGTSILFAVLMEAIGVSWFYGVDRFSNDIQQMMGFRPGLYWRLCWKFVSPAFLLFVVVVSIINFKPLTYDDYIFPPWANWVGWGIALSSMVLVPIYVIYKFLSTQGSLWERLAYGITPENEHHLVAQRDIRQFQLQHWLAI", "test": "cell-based", "details": "own compounds tested as racemic mixtures of enriched diastereomers"}, "Histamine H1 receptor": {"target": "Histamine H1 receptor (Homo sapiens, UniProt P35367)", "sequence (P35367 whole entry)": "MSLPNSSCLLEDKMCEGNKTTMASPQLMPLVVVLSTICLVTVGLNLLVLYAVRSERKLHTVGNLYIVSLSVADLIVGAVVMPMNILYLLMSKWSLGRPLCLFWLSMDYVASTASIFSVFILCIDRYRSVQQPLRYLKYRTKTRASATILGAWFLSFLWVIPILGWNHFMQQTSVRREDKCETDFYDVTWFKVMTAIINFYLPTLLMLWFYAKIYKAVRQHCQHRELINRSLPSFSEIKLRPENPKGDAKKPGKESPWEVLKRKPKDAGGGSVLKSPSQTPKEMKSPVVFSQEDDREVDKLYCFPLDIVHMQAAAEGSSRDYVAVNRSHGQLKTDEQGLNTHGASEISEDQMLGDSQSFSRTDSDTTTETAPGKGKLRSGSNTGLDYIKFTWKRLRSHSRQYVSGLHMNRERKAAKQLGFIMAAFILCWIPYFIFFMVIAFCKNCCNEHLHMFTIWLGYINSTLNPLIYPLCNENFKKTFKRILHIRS", "test": "in vitro selectivity panel, Histamine H1 receptor", "assay_type": "binding", "protocol": "(§1) The in vitro selectivity profile of two representative subject compounds, (3) and (1), are also tested against a panel of other receptors, including the M1 receptor, Histamine H1 receptor, sigma-1 (σ1) receptor, β1-adrenergic receptor, and dopamine D2 receptor. Representative results are listed below in Table III: […]"}, "β1-adrenergic receptor": {"target": "β1-adrenergic receptor (Homo sapiens, UniProt P08588)", "sequence (P08588 whole entry)": "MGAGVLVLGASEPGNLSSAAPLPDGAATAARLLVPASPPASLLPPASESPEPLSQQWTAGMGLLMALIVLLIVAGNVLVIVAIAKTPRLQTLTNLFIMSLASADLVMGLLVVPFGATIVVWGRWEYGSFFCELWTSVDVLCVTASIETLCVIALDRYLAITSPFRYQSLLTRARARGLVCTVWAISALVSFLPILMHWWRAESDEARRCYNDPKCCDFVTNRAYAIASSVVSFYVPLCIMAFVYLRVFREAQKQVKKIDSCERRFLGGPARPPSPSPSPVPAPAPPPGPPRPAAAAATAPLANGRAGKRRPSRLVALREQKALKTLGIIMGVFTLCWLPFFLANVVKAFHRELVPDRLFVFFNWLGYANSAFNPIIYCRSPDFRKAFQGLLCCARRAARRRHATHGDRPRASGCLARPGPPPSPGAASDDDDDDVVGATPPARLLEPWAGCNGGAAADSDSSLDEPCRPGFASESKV", "test": "in vitro selectivity panel, β1-adrenergic receptor", "assay_type": "binding", "protocol": "as §1"}, "rats": {"test_system": "rats", "test": "forced swim test (behavioral despair assay) in rats", "assay_type": "in vivo", "details": "rat", "protocol": "In vivo efficacy of several illustrative inhibitors of the instant invention, (1), (3), and (4), were measured using standard forced swim test model using rat. The objective of this study was to assess the antidepressant effects of test compounds in the behavioral despair assay in rats using a modification of a method described by Porsolt R. D. et al. in Behavioural despair in rats: a new model sensitive to antidepressant treatment, Eur. J. Pharmacol., 47: 379-391, 1978; Porsolt et al., Nature 266: 730-732, 1977; and Porsolt et al., in Psychopharmacology, Olivier, Mos, and Slangen (eds) Birkhäuser Verlag, Basel, pp. 137-159, 1991. Briefly, when mice (or rats) are forced to swim in a cylinder from which no escape is possible, they readily adopt a characteristic immobile posture and make no further attempts to escape except for small movements needed to keep floating. The immobility is considered by some to reflect a “depressive mood” (Porsolt et al., Nature 266: 730-732, 1977) in which animals cease to struggle to escape the aversive situation. The immobility induced by the procedure is influenced by a wide variety of antidepressants (Porsolt et al., in Psychopharmacology, Olivier, Mos, and Slangen (eds) Birkhauser Verlag, Basel, pp. 137-159, 1991) and has a good predictive validity in that it detects antidepressants with different mechanisms of action (TCAs, SSRIs, MAOIs, and other atypical ones). The test is sensitive to muscle-relaxant (benzodiazepines) and sedative (neuroleptics) effects, leading to enhanced immobility (Porsolt et al., supra).\nIn a typical experiment, animals are placed singly into a cylinder (e.g. 46×30 cm) containing fresh water at about 20° C. for 6 minutes. The activity (or immobility) of the animal is measured by an observer minute by minute. In more detail, the animals were preconditioned in a pretest session, where the rats were individually forced to swim inside a vertical plexiglass cylinder containing water maintained at 19-20° C. After 15 minutes in the water, they were allowed to dry for […] in a heated enclosure. Twenty-four hours later, the compounds were administered either intraperitoneally or orally to the animals. One hour after administration of the test compound, animals were put back into the cylinder containing water. The total duration of immobility was measured during the last 4 minutes of a 6 minute test.\nThe results are expressed as the percentage of variation of the total duration of immobility calculated from the mean value of the vehicle-treated group (% variation=[(immobility duration of vehicle−immobility duration of test compound)/(immobility duration of vehicle)]×100%).\nIn order to measure the in vivo efficacy of inhibiting DAT in rats using an inhibitor of the instant invention, one test inhibitor ((1), (3), or (4)) was injected i.p. as racemic mixtures of diastereomers into the animals, at various-doses (e.g. 7.5 and […]). Sibutramine (2.0 and 2.5 mg/kg), Bupropion (7.5 and 10 mg/kg), and Imipramine (30 mg/kg) were similarly administered as controls. […] Asterisks indicate highly statistical significant results.\nA fourth inhibitor, (6) was administered p.o. as a racemic mixture of diastereomers at either 35 or 75 mg/kg. Sibutramine (5.0 and 3.75 mg/kg), Bupropion (30 and 40 mg/kg), and Imipramine (100 mg/kg) were similarly administered as controls.\nSimilarly, (1) was also administered p.o. as a racemic mixture of enriched (95:5) diastereomer at either 35 or 75 mg/kg. […]"}, "dopamine D2 receptor": {"target": "dopamine D2 receptor (Homo sapiens, UniProt P14416)", "sequence (P14416 whole entry)": "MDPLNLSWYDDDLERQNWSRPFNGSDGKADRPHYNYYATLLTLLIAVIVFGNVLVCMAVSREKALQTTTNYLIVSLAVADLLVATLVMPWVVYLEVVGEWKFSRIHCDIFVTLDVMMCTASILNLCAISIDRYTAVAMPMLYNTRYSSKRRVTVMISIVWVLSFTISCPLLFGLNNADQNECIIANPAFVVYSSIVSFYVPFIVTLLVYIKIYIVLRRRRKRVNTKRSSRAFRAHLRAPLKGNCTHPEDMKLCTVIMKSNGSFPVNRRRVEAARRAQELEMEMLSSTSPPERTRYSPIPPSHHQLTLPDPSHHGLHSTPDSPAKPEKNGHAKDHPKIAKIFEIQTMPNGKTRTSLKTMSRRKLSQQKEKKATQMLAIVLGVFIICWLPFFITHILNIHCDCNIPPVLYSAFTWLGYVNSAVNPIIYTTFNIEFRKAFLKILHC", "test": "in vitro selectivity panel, dopamine D2 receptor", "assay_type": "binding", "protocol": "as §1"}, "sigma-1 (σ1) receptor": {"target": "sigma-1 (σ1) receptor (Homo sapiens, UniProt Q99720)", "sequence (Q99720 whole entry)": "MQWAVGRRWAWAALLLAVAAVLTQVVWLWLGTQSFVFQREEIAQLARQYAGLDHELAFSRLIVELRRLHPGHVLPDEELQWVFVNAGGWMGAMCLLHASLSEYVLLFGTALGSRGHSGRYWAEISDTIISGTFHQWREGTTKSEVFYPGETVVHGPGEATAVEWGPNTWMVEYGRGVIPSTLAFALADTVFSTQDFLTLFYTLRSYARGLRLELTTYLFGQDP", "test": "in vitro selectivity panel, sigma-1 receptor", "assay_type": "binding", "protocol": "as §1"}, "in vivo": {"test": "in vivo", "details": "rat"}, "M1 receptor": {"target": "T1, M1 receptor (Homo sapiens, UniProt P11229)", "T1 sequence (P11229 1-460)": "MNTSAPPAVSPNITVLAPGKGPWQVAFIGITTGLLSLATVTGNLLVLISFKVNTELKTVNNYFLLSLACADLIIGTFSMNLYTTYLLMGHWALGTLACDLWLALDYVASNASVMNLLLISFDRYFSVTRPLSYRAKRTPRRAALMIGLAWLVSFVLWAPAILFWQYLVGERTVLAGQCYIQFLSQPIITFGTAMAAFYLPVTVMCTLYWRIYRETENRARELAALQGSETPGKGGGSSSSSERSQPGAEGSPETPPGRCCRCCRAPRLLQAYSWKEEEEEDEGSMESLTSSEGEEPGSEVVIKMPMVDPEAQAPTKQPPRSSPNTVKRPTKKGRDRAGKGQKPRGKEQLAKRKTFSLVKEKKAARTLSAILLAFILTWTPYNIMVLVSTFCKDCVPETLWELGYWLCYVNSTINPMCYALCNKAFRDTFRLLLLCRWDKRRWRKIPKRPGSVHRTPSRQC", "test": "in vitro selectivity panel, M1 receptor", "assay_type": "binding", "protocol": "as §1"}, "5-HT": {"target": "5-HT (Homo sapiens, UniProt P31645)", "sequence (P31645 whole entry)": "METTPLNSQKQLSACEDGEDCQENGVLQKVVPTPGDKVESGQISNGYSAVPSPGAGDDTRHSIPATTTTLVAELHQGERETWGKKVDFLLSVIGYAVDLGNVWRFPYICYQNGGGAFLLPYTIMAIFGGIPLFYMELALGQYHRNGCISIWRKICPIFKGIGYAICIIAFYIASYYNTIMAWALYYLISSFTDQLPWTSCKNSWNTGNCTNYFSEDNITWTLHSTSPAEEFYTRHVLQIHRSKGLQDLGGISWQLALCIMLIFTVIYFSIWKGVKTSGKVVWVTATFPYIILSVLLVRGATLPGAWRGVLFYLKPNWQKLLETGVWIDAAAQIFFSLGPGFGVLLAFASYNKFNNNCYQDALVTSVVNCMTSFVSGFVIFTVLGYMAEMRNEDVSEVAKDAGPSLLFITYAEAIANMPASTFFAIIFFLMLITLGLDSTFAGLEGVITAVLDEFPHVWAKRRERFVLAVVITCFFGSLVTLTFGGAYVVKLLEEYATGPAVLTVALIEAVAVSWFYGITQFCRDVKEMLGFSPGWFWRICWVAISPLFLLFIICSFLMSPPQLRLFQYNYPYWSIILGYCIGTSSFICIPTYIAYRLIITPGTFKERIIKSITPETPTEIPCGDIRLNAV", "test": "cell-based", "details": "own compounds tested as racemic mixtures of enriched diastereomers"}}, "note": "pEC50: −log10 of the molar value."}
{"smiles": "CC1CCN(CC2(c3ccc(Cl)cc3)CCC2)CC1COc1ccc(C(F)(F)F)cc1", "note": "(stereo not shown) [(1)]", "values": [{"measurement": "pEC50", "setting": "DAT (r)", "value": 7.10}, {"measurement": "IC50", "setting": "[1]", "value": 175, "unit": "nM"}, {"measurement": "Histamine H1 (nM)h", "setting": "Histamine H1 receptor", "value": 5000, "unit": "nM"}, {"measurement": "β1-adrenergic (nM)h", "setting": "β1-adrenergic receptor", "value": 5000, "unit": "nM"}, {"measurement": "forced swim test efficacy versus commercial drugs (FIG. 1)", "setting": "rats; i.p., racemic mixtures of diastereomers", "value": "performed equally well, if not better, than the commercial drugs Sibutramine, Bupropion, and Imipramine"}, {"measurement": "forced swim test efficacy versus commercial drugs (FIG. 2, FIG. 3)", "setting": "rats; p.o., 35 or 75 mg/kg", "value": "performed equally well, if not better, than the commercial drugs Sibutramine, Bupropion, and Imipramine"}, {"measurement": "D2 (nM)h", "setting": "dopamine D2 receptor", "value": 1000, "unit": "nM"}, {"measurement": "Sigma σ1 (nM)h", "setting": "sigma-1 (σ1) receptor", "value": 5000, "unit": "nM"}, {"measurement": "Vd", "setting": "in vivo", "value": 6, "unit": "L/kg"}, {"measurement": "half-life", "setting": "in vivo; iv", "value": 3.33, "unit": "h"}, {"measurement": "bioavailability", "setting": "in vivo; po", "value": 40, "unit": "%"}, {"measurement": "M1 (nM)h", "setting": "M1 receptor", "value": 5000, "unit": "nM"}, {"measurement": "IC50", "setting": "5-HT", "value": 1200, "unit": "nM"}]}
